We go through one molecule from patent US20210330756A1, “Acetylation of Miro1” (University of South Carolina, priority 2020, published 2021).

Assay [1] deals with adult dorsal root ganglion (DRG) neurons. The assay is described as follows: Neurite length of dissociated adult DRG neurons cultured on laminin. Format: cell-based, rat. As to conditions: 10 μM, 1 h. On the procedure: HDAC6 inhibition increases growth cone size of sensory axons. Given our previous work showing that HDAC6 inhibition allows axons to grow on MAG and CSPG substrates (Rivieccio et al., 2009; Butler et al., 2010), we asked how inhibition of HDAC6 alters axon growth in cultures of adult dorsal root ganglion (DRG) neurons. […] (A) Quantification of neurite length for dissociated DRGs cultured on laminin with addition of HDAC6 inhibitor TubA (10 μm) versus vehicle control (DMSO) over 1 h is shown as average fold-change relative to vehicle±SEM (n≥95 neurons across three independent experiments; NS by one-way ANOVA with Bonferroni post hoc). (B and C) show representative DIC images of distal axons from DRG neurons cultured as in A are shown (B). 1-h TubA treatment appears to increase growth cone size. Analyses of growth cone area across multiple experiments show a significant increase in area after TubA treatment (C). Values are average fold-change±SEM (n≥26 neurons over at least three culture preparations; ***, P≤0.005 by one-way ANOVA with Bonferroni post hoc; scale bar=5 μm; 40×/1.3 NA objective used). […] Prominent HDAC6 signals are seen in distal axons and growth cones (arrows) regardless of TubA exposure. […]
NF-stained cultures were used for neurite growth analyses. […] The growth cone area was measured using ImageJ software from these annotated DIC images. […]

In a further assay the test system is Ac-α-tubulin. In words: Immunoblotting for Ac-α-tubulin in adult DRG neurons. Format: cell-based, rat. On the procedure: We tested for this specificity in the adult DRG neurons from above by immunoblotting. […] (A) Number of mitochondria in growth cones after exposing DRG cultures to 10 μM TubA versus vehicle (control) for 1 h is shown as average fold-change in number of mitochondria per growth cone±SEM (n=13 axons across three culture preparations; *, P≤0.05 by one-way ANOVA with Bonferroni post hoc analysis). (B) Representative EMs of Remak bundles (arrowheads) in naive Sciatic nerve and nerves after 2 h vehicle (DMSO) or TubA injection are shown. Arrows indicate mitochondria in the unmyelinated axons. Note that a Schwann cell nucleus (asterisk) is seen in the Remak bundle for DMSO image but not the other two micrographs (scale bar=3 μm). (C) Quantification of number of mitochondria per unmyelinated axon from EM images as in B is shown as average±SEM (n≥5; *****, P≤0.0001 by one-way ANOVA with Bonferroni post hoc analysis). (D-F) Quantification for indicated parameters for mitochondrial transport in sciatic nerve in vivo using tetramethylrhodamine, ethyl ester, perchlorate to visualize mitochondria is shown.
For immunoblotting, protein lysates or immunoprecipitates were denatured by boiling in Laemmli sample buffer, fractionated by SDS-PAGE, and transferred to nitrocellulose membranes. Blots were blocked for 1 h at room temperature with 5% nonfat dry milk in TBS with 0.1% Tween 20 (TBST). Primary antibodies diluted in 5% BSA in TBST were added to the membranes and incubated overnight at 4° C. with rocking. Primary antibodies consisted of rabbit anti-Myc (1:2,000; Cell Signaling; 71D10), rabbit anti-RHOT1 antibody (1:1,000; Aviva Systems Biology; ARP44817 P050), rabbit anti-HDAC6 antibody (1:2,000; Cell Signaling; 7558), rabbit anti-ERK1 (1:5,000; Abcam; ab32537), and affinity-purified custom rabbit anti-Miro1-AcK105 (1:2,500; Twiss laboratory, see above) antibodies. For the anti-Miro1-AcK105 antibody, preimmune and test-bleed sera were used at 1:1,000 dilutions to initially evaluate for specificity. […] Signals were detected using ECL Prime (GE Healthcare) after extensive washing.

As to `CN1CCc2c(c3ccccc3n2Cc2ccc(C(=O)NO)cc2)C1` [TubA, tubastatin], in assay [1], the “neurite length vs vehicle” value is recorded as “did not significantly affect neurite length”. The Ac-α-tubulin levels result with Ac-α-tubulin (1 μM), in the assay on Ac-α-tubulin (10 μM) and in the assay on Ac-α-tubulin (100 μM) was “clear increase in Ac-α-tubulin levels” throughout.
